Laboratory results from patent US20240269155A1, “METHODS AND USES OF BORON COMPOUNDS IN THE TREATMENT OF NONTUBERCULOUS MYCOBACTERIUM INFECTIONS AND PHARMACEUTICAL COMPOSITIONS FOR TREATMENT OF SAME” (priority 2022, published 2024).
Where two headings read alike, the source gives them in different places.

Assays:
M. scrofulaceum = experiment: MIC determination (CLSI M24-A2); format: cell-based, Mycobacterium scrofulaceum
Method: (§1) The in vitro activity of the parent boron compound described herein was assessed by standard testing procedures such as the determination of minimum inhibitory concentration (MIC) as described in Clinical and Laboratory Standards Institute (CLSI) document M24-A2. Lower MIC values indicate high antibacterial activity, while higher MIC values indicate a reduced antibacterial activity. Generally, MIC values of about ≤2 mg/L indicate a good therapeutic (i.e., suitable for therapy) potency for antibacterial drugs, while MIC values of ≥8 mg/L indicate a lack of therapeutically useful activity for a test compound.
(§2) (MIC ranges from 0.063-2 mg/L).

M. gordonae = experiment: MIC determination (CLSI M24-A2); format: cell-based, Mycobacterium gordonae
Method: as §1, §2

M. avium = experiment: MIC determination (CLSI M24-A2); format: cell-based, Mycobacterium avium
Method: as §1, §2

M. intercelleulare = experiment: MIC determination (CLSI M24-A2); format: cell-based, Mycobacterium intercelleulare
Method: as §1, §2

M. abscessus = experiment: MIC determination (CLSI M24-A2); format: cell-based, Mycobacterium abscessus
Method: as §1, §2

M. fortuitum = experiment: MIC determination (CLSI M24-A2); format: cell-based, Mycobacterium fortuitum
Method: as §1, §2

M. peregrinum = experiment: MIC determination (CLSI M24-A2); format: cell-based, Mycobacterium peregrinum
Method: as §1, §2

M. smegmatis = experiment: MIC determination (CLSI M24-A2); format: cell-based, Mycobacterium smegmatis
Method: as §1, §2

M. massiliense = experiment: MIC determination (CLSI M24-A2); format: cell-based, Mycobacterium massiliense
Method: as §1, §2

Mycobacteria pathogens = experiment: MIC against mycobacteria pathogens, summary over species; format: cell-based, nontuberculous Mycobacterium; settings: for MIC range: M. intercelleulare, M. fortuitum, M. peregrinum, M. smegmatis, M. massiliense
[1] = tested on: clinical isolates of M. abscessus complex; experiment: MIC against clinical isolates of M. abscessus complex; format: cell-based, M. abscessus and M. massiliense
[2] = tested on: clinical isolates of M. abscessus complex; experiment: MBC against clinical isolates of M. abscessus complex; format: cell-based, M. abscessus and M. massiliense; settings: for Classification: from MBC/MIC ratio
M. abscessus CIP108297 = experiment: M. abscessus mouse lung infection model; format: in vivo, BALB/c mice
Method: To establish the efficacy of the compounds described herein in vivo, an M. abscessusmouse lung infection model was performed. Groups of BALB/c mice (The mice were randomly divided into groups with 6 mice in each group) were administered cyclophosphamide one week before infection, and then inoculated intranasally with M. abscessus CIP108297 (10^7 CFU/mouse). Three days after infection, the mice were subsequently treated with 10 mg/kg of the compound of Example 4 or GSK656 administered daily by subcutaneous, or 100 mg/kg linezolid (an approved antibiotic) or 200 mg/kg clarithromycin (an approved antibiotic) administered daily by oral gavage. […] This may be attributed to the surprising finding of lower MBC in the compound of Example 4.

[3] = Rat PK model, intravenous or oral gavage; format: in vivo, SD rats; settings: 5 mg/kg, parent compound Example 4 quantified
Excerpt: To further elucidate the therapeutic potential of drug compounds, pharmacokinetic (PK) data is often used to establish key parameters predictive of a therapy outcome, such as the area under the curve (AUC) of a plot monitoring the change in systemic drug concentration over time. A higher AUC value indicates a greater exposure to the drug, commonly associated with a greater therapeutic potential due to a higher amount of drug available to combat the infection. In contrast, a lower AUC value indicates a reduced exposure to the drug, resulting in a reduced amount of antibiotic available to combat bacterial infections. To that end, the compounds described herein were tested in the rat PK model of oral administration performed analogously to the methods described in the monograph Current Protocols in Pharmacology, 2005, 7.1.1-7.1.26, John Wiley & Sons, Inc.
All the compounds were administered to SD rats (The rats were randomly divided into groups with 3 rats in each group) by intravenous or oral gavage. The prodrugs convert to the parent drug molecule in vivo. Therefore, only the parent compound Example 4 was analyzed and quantified in all test samples. […] Furthermore, based on the known comparison of rodent tests to human data (such as known species-to-species PK scaling), this is possible with a lower dosage for therapy in humans.

[4] = Lung distribution study in mouse; format: in vivo, Balb/C mouse; settings: 10 mg/kg iv
[5] = 20 clinical isolates of M. abscessus complex

Work on “[(2S,6R)-2-(Aminomethyl)-4-bora-3,5,8-trioxatricyclo[7.3.1.04,13]trideca-1(12),10-dien-6-yl]methanol hydrochloride [Example 4]” yielded an MIC (M. scrofulaceum) of 0.25 µg/mL, an MIC (M. gordonae) of 0.5 µg/mL and an MIC (M. avium) of 2 µg/mL. The MIC (M. intercelleulare) was 2 µg/mL, the MIC (M. abscessus) was 0.063 µg/mL and the MIC (M. fortuitum) was 0.125 µg/mL. The MIC (M. peregrinum) was 0.125 µg/mL, the MIC (M. smegmatis) was 0.125 µg/mL and the MIC (M. massiliense) was 0.063 µg/mL. The “fold more potent than GSK656 (MIC)” value (Mycobacteria pathogens; M. avium and M. intercelleulare) was 4 fold, the MIC range (Mycobacteria pathogens; across M. scrofulaceum, M. gordonae, M. avium, M. abscessus) was 0.063 to 2 µg/mL and the MIC range (Mycobacteria pathogens; rapidly growing mycobacteria (RGM): M. abscessus) was 0.063 to 0.125 µg/mL. It also gave an MIC [1] of 0.063 µg/mL, an MIC ([1]; clinical isolate A35) of 0.063 µg/mL and an MIC ([1]; clinical isolate A51) of 0.063 µg/mL. For the same substance, the MIC ([1]; clinical isolate A197) was 0.063 µg/mL, the MIC ([1]; clinical isolate A215) was 0.063 µg/mL and the MIC ([1]; clinical isolate A217) was 0.063 µg/mL. The MIC ([1]; clinical isolate A222) was 0.063 µg/mL, the MIC ([1]; clinical isolate A255) was 0.063 µg/mL and the MIC ([1]; clinical isolate A311) was 0.063 µg/mL. It also gave an MIC ([1]; clinical isolate G73) of 0.063 µg/mL, an MIC ([1]; clinical isolate G74) of 0.063 µg/mL and an MIC ([1]; clinical isolate G87) of 0.063 µg/mL. The MIC ([1]; clinical isolate G110) was 0.063 µg/mL, the MIC ([1]; clinical isolate G164) was 0.063 µg/mL and the MIC ([1]; clinical isolate G182) was 0.063 µg/mL. For the same substance, the MBC [2] was 0.125 µg/mL, the “MBC compared with GSK656” value [2, 5] was “much lower MBC against all isolates tested” and the “bactericidal/bacteriostatic classification over the isolates” value [2, 5] was “bactericidal against half of the isolates”. For the same substance, the MBC ([2]; clinical isolate A35) was 0.25 µg/mL, the Classification ([2]; clinical isolate A35) was “Bactericidal (bactericidal if the MBC/MIC ratio was <4)” and the MBC ([2]; clinical isolate A51) was 0.25 µg/mL. The Classification ([2]; clinical isolate A51) was “Bactericidal (bactericidal if the MBC/MIC ratio was <4)”, the MBC ([2]; clinical isolate A197) was 1 µg/mL and the Classification ([2]; clinical isolate A197) was “Bacteriostatic (bacteriostatic if the ratio was >4)”. For the same substance, the MBC ([2]; clinical isolate A213) was 0.25 µg/mL, the Classification ([2]; clinical isolate A213) was “Bactericidal (bactericidal if the MBC/MIC ratio was <4)” and the MBC ([2]; clinical isolate A215) was 0.5 µg/mL. For the same substance, the Classification ([2]; clinical isolate A215) was “Bacteriostatic (bacteriostatic if the ratio was >4)”, the MBC ([2]; clinical isolate A217) was 0.5 µg/mL and the Classification ([2]; clinical isolate A217) was “Bacteriostatic (bacteriostatic if the ratio was >4)”. The MBC ([2]; clinical isolate A222) was 0.25 µg/mL, the Classification ([2]; clinical isolate A222) was “Bactericidal (bactericidal if the MBC/MIC ratio was <4)” and the Classification ([2]; clinical isolate A232) was “Bactericidal (bactericidal if the MBC/MIC ratio was <4)”. The MBC ([2]; clinical isolate A255) was 0.25 µg/mL, the Classification ([2]; clinical isolate A255) was “Bactericidal (bactericidal if the MBC/MIC ratio was <4)” and the MBC ([2]; clinical isolate A268) was 2 µg/mL. For the same substance, the Classification ([2]; clinical isolate A268) was “Bacteriostatic (bacteriostatic if the ratio was >4)”, the MBC ([2]; clinical isolate A274) was 2 µg/mL and the Classification ([2]; clinical isolate A274) was “Bacteriostatic (bacteriostatic if the ratio was >4)”. For the same substance, the MBC ([2]; clinical isolate A311) was 0.25 µg/mL, the Classification ([2]; clinical isolate A311) was “Bactericidal (bactericidal if the MBC/MIC ratio was <4)” and the MBC ([2]; clinical isolate A353) was 0.25 µg/mL. For the same substance, the Classification ([2]; clinical isolate A353) was “Bactericidal (bactericidal if the MBC/MIC ratio was <4)”, the MBC ([2]; clinical isolate G73) was 1 µg/mL and the Classification ([2]; clinical isolate G73) was “Bacteriostatic (bacteriostatic if the ratio was >4)”. For the same substance, the MBC ([2]; clinical isolate G74) was 1 µg/mL, the Classification ([2]; clinical isolate G74) was “Bacteriostatic (bacteriostatic if the ratio was >4)” and the MBC ([2]; clinical isolate G87) was 0.5 µg/mL. The Classification ([2]; clinical isolate G87) was “Bacteriostatic (bacteriostatic if the ratio was >4)”, the MBC ([2]; clinical isolate G104) was 0.25 µg/mL and the Classification ([2]; clinical isolate G104) was “Bactericidal (bactericidal if the MBC/MIC ratio was <4)”. For the same substance, the MBC ([2]; clinical isolate G110) was 1 µg/mL, the Classification ([2]; clinical isolate G110) was “Bacteriostatic (bacteriostatic if the ratio was >4)” and the MBC ([2]; clinical isolate G164) was 0.25 µg/mL. The Classification ([2]; clinical isolate G164) was “Bactericidal (bactericidal if the MBC/MIC ratio was <4)”, the MBC ([2]; clinical isolate G182) was 1 µg/mL and the Classification ([2]; clinical isolate G182) was “Bacteriostatic (bacteriostatic if the ratio was >4)”. For the same substance, the “reduction in bacteria in the lungs compared to the untreated groups” value (M. abscessus CIP108297; 10 mg/kg daily subcutaneous, treatment from 3 days after infection, lung CFU at 2 weeks post-infection) was roughly 7.8 log 10 CFU, the “lung pathology, H&E stained tissue sections” value (M. abscessus CIP108297; 2-weeks post-infection, treated group) was “pathologic changes were rare and lung lesions were negligible” and the “organisms in the lungs compared to animals treated with GSK656” value (M. abscessus CIP108297; both 10 mg/kg daily subcutaneous, 2 weeks post-infection) was “reduced markedly”. For the same substance, the AUC ([3]; iv) was 5661 ng·h/mL, the Cmax ([3]; iv) was 6776 ng/mL and the AUC ([3]; oral) was 856 ng·h/mL. The Cmax ([3]; oral) was 139 ng/mL, the Oral bioavailability ([3]; oral) was 15% and the “AUC ratio (lung/plasma)” value ([4]; analyte Example 4) was 2.39. It also gave an AUClast ([4]; analyte Example 4, lung) of 12822 ng·h/g, a t1/2 ([4]; analyte Example 4, lung) of 1.46 h and an AUClast ([4]; analyte Example 4, plasma) of 5359 ng·h/mL. It also gave a t1/2 ([4]; analyte Example 4, plasma) of 1.87 h.
